Measured values as given in ChEMBL document CHEMBL1128323, “Antifungal agents. 9. 3-Aryl-4-[alpha-(1H-imidazol-1-yl)arylmethyl]pyrroles: a new class of potent anti-Candida agents” (1995).
Converted amounts (≈) assume the structure as drawn. “And” between values parts separate entries of the source, which are not always exact repeats. Equal values may be shown once.

How the values were obtained:
Type in all cases: functional
[1] = test system: Candida albicans; assay: Inhibitory activity against the Candida albicans (40 clinical isolates), determined at pH-5.8
[2] = test system: Candida albicans; assay: 50% inhibitory activity against Candida albicans (40 clinical isolates) determined at pH-5.8
[3] = test system: Candida; assay: Resistance against all Candida. species (40 clinical isolates) at 256 micro g/mL (pH=5.8). Activity is expressed as R%.
[4] = test system: Candida albicans; assay: Inhibitory activity against Candida albicans (40 clinical isolates), determined at pH-7.2
[5] = test system: Candida; assay: 90% inhibitory activity against Candida. species (40 clinical isolates) determined at pH-7.2
[6] = test system: Candida albicans; assay: Inhibitory activity against the Candida albicans (40 clinical isolates), determined at pH-7.2
[7] = test system: Candida; assay: Inhibitory activity against Candida. species. (40 clinical isolates), determined at pH-5.8
[8] = test system: Candida albicans; assay: Inhibitory activity against Candida albicans (40 clinical isolates), determined at pH-5.8
[9] = test system: Candida albicans; assay: Percent resistance against Candida albicans (40 clinical isolates) at 256 micro g/mL (pH=5.8), activity is expressed as R%.
[10] = test system: Candida; assay: Inhibitory activity against Candida. species (40 clinical isolates), determined at pH-5.8
[11] = test system: Candida; assay: Inhibitory activity against Candida. species. (40 clinical isolates), determined at pH-7.2
[12] = test system: Candida albicans; assay: Resistance against Candida. albicans (40 clinical isolates) at 256 ug/mL (pH=7.2), activity is expressed as R%.
[13] = test system: Candida albicans; assay: 50% inhibitory activity against Candida albicans (40 clinical isolates) determined at pH-7.2; conditions: Candida albicans; read-out: MIC50
[14] = test system: Candida; assay: 50% inhibitory activity against the Candida. species (40 clinical isolates) was determined at pH-7.2
[15] = test system: Candida; assay: Percent resistance against all Candida. species (40 clinical isolates) at 256 micro g/mL (pH=7.2), activity is expressed as R%.
[16] = test system: Candida; assay: 90% inhibitory activity against the Candida. species (40 clinical isolates) was determined at pH-7.2
[17] = test system: Oryctolagus cuniculus; assay: Topical comparison with bifonazole in white male rabbits at 1% concentration of compound
[18] = test system: Candida albicans; assay: The compound was tested for percent resistance against Candida. albicans (40 clinical isolates) at 256 micro g/mL (pH=7.2), activity is expressed as R%.

SMILES	MIC90 [1]	MIC50 [2]	R [3]	MIC [4]	MIC90 [5]	MIC90 [6]	MIC [7]	MIC [8]	R [9]	MIC50 [10]	MIC90 [10]	MIC [11]	R [12]	MIC50 [13]	MIC50 [14]	R [15]	MIC90 [16]	Percentage of animals [17]	R [18]
Fc1ccc(C(c2c[nH]cc2-c2ccc(Cl)cc2)n2ccnc2)cc1 (stereo not drawn)	64 µg/mL (≈ 182 µM)	32 µg/mL (≈ 91 µM)	0%	19.2 µg/mL (≈ 54.6 µM)	64 µg/mL (≈ 182 µM)	32 µg/mL (≈ 91 µM)	26.6 µg/mL (≈ 75.6 µM)	15.4 µg/mL (≈ 43.8 µM)	0%	32 µg/mL (≈ 91 µM)	32 µg/mL (≈ 91 µM)	31.8 µg/mL (≈ 90.4 µM)	0%	16 µg/mL (≈ 45.5 µM)	32 µg/mL (≈ 91 µM)	0%			
Nc1ccc(C(c2c[nH]cc2-c2ccccc2)n2ccnc2)cc1 (stereo not drawn)	256 µg/mL (≈ 814 µM)	128 µg/mL (≈ 407 µM)	80%	162 µg/mL (≈ 515 µM)		128 µg/mL (≈ 407 µM)	> 327 µg/mL	142 µg/mL (≈ 453 µM)	0%	256 µg/mL (≈ 814 µM)	> 256 µg/mL	> 331 µg/mL	0%	128 µg/mL (≈ 407 µM)	256 µg/mL (≈ 814 µM)	80%	> 256 µg/mL		
O=[N+]([O-])c1ccc(C(c2c[nH]cc2-c2ccccc2Cl)n2ccnc2)cc1 (stereo not drawn)	64 µg/mL (≈ 169 µM)	32 µg/mL (≈ 84.5 µM)	0%	> 91.6 µg/mL	> 256 µg/mL	256 µg/mL (≈ 676 µM)	48.4 µg/mL (≈ 128 µM)	> 50.7 µg/mL	0%	64 µg/mL (≈ 169 µM)	64 µg/mL (≈ 169 µM)	> 200 µg/mL	15%	32 µg/mL (≈ 84.5 µM)	64 µg/mL (≈ 169 µM)	30%			
Fc1ccc(C(c2c[nH]cc2-c2ccc(Cl)cc2Cl)n2ccnc2)cc1 (stereo not drawn)	32 µg/mL (≈ 82.8 µM)	2 µg/mL (≈ 5.18 µM)	0%	10.4 µg/mL (≈ 26.9 µM)	32 µg/mL (≈ 82.8 µM)	32 µg/mL (≈ 82.8 µM)	21.5 µg/mL (≈ 55.7 µM)	7.8 µg/mL (≈ 20.2 µM)	0%	16 µg/mL (≈ 41.4 µM)	32 µg/mL (≈ 82.8 µM)	20.9 µg/mL (≈ 54.1 µM)	0%	8 µg/mL (≈ 20.7 µM)	16 µg/mL (≈ 41.4 µM)	0%			
Clc1ccc(C(c2c[nH]cc2-c2ccccc2)n2ccnc2)cc1 (stereo not drawn)	64 µg/mL (≈ 192 µM)		0%	21.3 µg/mL (≈ 63.8 µM)		128 µg/mL (≈ 383 µM)	51.4 µg/mL (≈ 154 µM)	47.3 µg/mL (≈ 142 µM)	0%	64 µg/mL (≈ 192 µM)	64 µg/mL (≈ 192 µM)	40 µg/mL (≈ 120 µM)	0%		32 µg/mL (≈ 95.9 µM)	0%	128 µg/mL (≈ 383 µM)		
Clc1ccc(-c2c[nH]cc2C(c2ccc(Cl)c(Cl)c2)n2ccnc2)cc1 (stereo not drawn)	64 µg/mL (≈ 159 µM)	4 µg/mL (≈ 9.93 µM)	0%	19.3 µg/mL (≈ 48 µM)	64 µg/mL (≈ 159 µM)	64 µg/mL (≈ 159 µM)	32.2 µg/mL (≈ 80 µM)	14.4 µg/mL (≈ 35.8 µM)	0%	32 µg/mL (≈ 79.5 µM)	64 µg/mL (≈ 159 µM)	91.3 µg/mL (≈ 227 µM)	0%	2 µg/mL (≈ 4.97 µM)	64 µg/mL (≈ 159 µM)	10%			
Clc1ccc(C(c2c[nH]cc2-c2ccc(Cl)c(Cl)c2)n2ccnc2)cc1 (stereo not drawn)	16 µg/mL (≈ 39.7 µM)	4 µg/mL (≈ 9.93 µM)	0%	9.6 µg/mL (≈ 23.8 µM)	64 µg/mL (≈ 159 µM)	16 µg/mL (≈ 39.7 µM)	30.2 µg/mL (≈ 75 µM)	8.9 µg/mL (≈ 22.1 µM)	0%	32 µg/mL (≈ 79.5 µM)	64 µg/mL (≈ 159 µM)	39.2 µg/mL (≈ 97.3 µM)	0%	4 µg/mL (≈ 9.93 µM)	32 µg/mL (≈ 79.5 µM)	0%			
c1ccc(-c2ccc(C(c3ccccc3)n3ccnc3)cc2)cc1 (stereo not drawn) [BIFONAZOLE]	16 µg/mL (≈ 51.5 µM)	4 µg/mL (≈ 12.9 µM)	0%	4.1 µg/mL (≈ 13.2 µM)		16 µg/mL (≈ 51.5 µM)	7.5 µg/mL (≈ 24.2 µM)	3.72 µg/mL (≈ 12 µM)	0%	8 µg/mL (≈ 25.8 µM)	8 µg/mL (≈ 25.8 µM)	4.5 µg/mL (≈ 14.5 µM)		4 µg/mL (≈ 12.9 µM)	4 µg/mL (≈ 12.9 µM)	0%	16 µg/mL (≈ 51.5 µM)	3% and 6% and 10%	0%
Clc1ccc(COC(Cn2ccnc2)c2ccc(Cl)cc2Cl)c(Cl)c1 (stereo not drawn) [MICONAZOLE]	32 µg/mL (≈ 76.9 µM)	0.5 µg/mL (≈ 1.2 µM)	0%	6.1 µg/mL (≈ 14.7 µM)	32 µg/mL (≈ 76.9 µM)	32 µg/mL (≈ 76.9 µM)	13 µg/mL (≈ 31.2 µM)	5.9 µg/mL (≈ 14.2 µM)	0%	2 µg/mL (≈ 4.81 µM)	32 µg/mL (≈ 76.9 µM)	13 µg/mL (≈ 31.2 µM)	0%	2 µg/mL (≈ 4.81 µM)	16 µg/mL (≈ 38.4 µM)	0%			
